Experimental data from ChEMBL document CHEMBL1201862, “PubChem BioAssay data set” (2004).
Values joined by “and” are separate entries in the source; they are usually repeats but may differ in a detail not shown here. Identical values can stand only once.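 Test compounds were applied to cells in 96-well plates for 48 hours at 5 doses. GI50: concentration for 50% inhibition of growth.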 Active and inactive are the calls of the source. Rule as the data show it: active = GI50 up to about 1.1 µM and inactive = higher.

Tests used:
Test in all cases: inhibition of tumour cell growth, NCI panel, 48 h
RPMI-8226 = test system: RPMI-8226
786-0 = test system: 786-0
HOP-62 = test system: HOP-62
SK-OV-3 = test system: SK-OV-3
OVCAR-8 = test system: OVCAR-8
SK-MEL-5 = test system: SK-MEL-5
TK-10 = test system: TK-10
K562 = test system: K562
CAKI-1 = test system: CAKI-1
OVCAR-3 = test system: OVCAR-3
MCF7 = test system: MCF7
CCRF-CEM = test system: CCRF-CEM
NCI/ADR-RES = test system: NCI/ADR-RES
SNB-75 = test system: SNB-75
ACHN = test system: ACHN
HCT-15 = test system: HCT-15
SW-620 = test system: SW-620
COLO 205 = test system: COLO 205
SR = test system: SR
Malme-3M = test system: Malme-3M

| SMILES | GI50 (RPMI-8226) | GI50 (786-0) | GI50 (HOP-62) | GI50 (SK-OV-3) | GI50 (OVCAR-8) | GI50 (SK-MEL-5) | GI50 (TK-10) | GI50 (K562) | GI50 (CAKI-1) | GI50 (OVCAR-3) | GI50 (MCF7) | GI50 (CCRF-CEM) | GI50 (NCI/ADR-RES) | GI50 (SNB-75) | GI50 (ACHN) | GI50 (HCT-15) | GI50 (SW-620) | GI50 (COLO 205) | GI50 (SR) | GI50 (Malme-3M) |
| --- | --- | --- | --- | --- | --- | --- | --- | --- | --- | --- | --- | --- | --- | --- | --- | --- | --- | --- | --- | --- |
| O=C1c2n[nH]nc2C(=O)c2n[nH]nc21 | > 100 µM (inactive) | > 100 µM (inactive) | > 100 µM (inactive) | > 100 µM (inactive) | > 100 µM (inactive) | > 100 µM (inactive) | > 100 µM (inactive) | > 100 µM (inactive) | > 100 µM (inactive) | > 100 µM (inactive) | > 100 µM (inactive) | > 100 µM (inactive) | > 100 µM (inactive) | > 100 µM (inactive) | > 100 µM (inactive) | > 100 µM | > 100 µM (inactive) | > 100 µM (inactive) | > 100 µM (inactive) | – |
| O=C1/C(=N/N=C(c2ccccc2)c2ccccc2)c2ccccc2-c2ccccc21 | – | > 100 µM (inactive) | > 100 µM (inactive) | > 100 µM (inactive) | > 100 µM (inactive) | 99.5 µM (inactive) | 75.5 µM (inactive) | > 100 µM (inactive) | 37.6 µM (inactive) | 40.8 µM (inactive) | > 100 µM (inactive) | – | 54 µM (inactive) | > 100 µM (inactive) | 65.9 µM (inactive) | 37.8 µM | > 100 µM (inactive) | > 100 µM (inactive) | 51.2 µM (inactive) | 78.5 µM (inactive) |
| CN(C(=O)C1=CCCCCC1)c1ccccc1I | 35.5 µM (inactive) | 27.8 µM (inactive) | 63.4 µM (inactive) | 43.5 µM (inactive) | 38.5 µM (inactive) | 23.6 µM (inactive) | – | 59.2 µM (inactive) | 64.4 µM (inactive) | 49.7 µM (inactive) | 51.5 µM (inactive) | 41.7 µM (inactive) | 25.6 µM (inactive) | 13.5 µM (inactive) | 59.6 µM (inactive) | 39.6 µM | 40.6 µM (inactive) | 15.8 µM (inactive) | 39 µM (inactive) | – |
| O=C(O)C(Br)C(Br)C(=O)O (configuration not stated) | > 100 µM (inactive) | > 100 µM (inactive) | > 100 µM (inactive) | > 100 µM (inactive) | > 100 µM (inactive) | > 100 µM (inactive) | > 100 µM (inactive) | > 100 µM (inactive) | > 100 µM (inactive) | > 100 µM (inactive) | > 100 µM (inactive) | – | > 100 µM (inactive) | > 100 µM (inactive) | > 100 µM (inactive) | > 100 µM | > 100 µM (inactive) | > 100 µM (inactive) | 28.2 µM (inactive) | > 100 µM (inactive) |
| CC(=O)OC1COC(n2c(N)c(C#N)c(C)c(C#N)c2=S)C(OC(C)=O)C1OC(C)=O (configuration not stated) | > 100 µM (inactive) | > 100 µM (inactive) | > 100 µM (inactive) | > 100 µM (inactive) | > 100 µM (inactive) | > 100 µM (inactive) | > 100 µM (inactive) | 58.9 µM (inactive) | > 100 µM (inactive) | > 100 µM (inactive) | 88.1 µM (inactive) | – | > 100 µM (inactive) | > 100 µM (inactive) | 59.6 µM (inactive) | > 100 µM | > 100 µM (inactive) | – | > 100 µM (inactive) and 54.1 µM (inactive) | > 100 µM (inactive) |
| c1ccc(-c2ccc(-c3cc4ccccc4[nH]3)cc2)cc1 | > 100 µM (inactive) | > 100 µM (inactive) | > 100 µM (inactive) | > 100 µM (inactive) | > 100 µM (inactive) | > 100 µM (inactive) | > 100 µM (inactive) | – | 61.7 µM (inactive) | > 100 µM (inactive) | > 100 µM (inactive) | 87.7 µM (inactive) | > 100 µM (inactive) | > 100 µM (inactive) | > 100 µM (inactive) | > 100 µM | > 100 µM (inactive) | > 100 µM (inactive) | > 100 µM (inactive) | > 100 µM (inactive) |
| O=C(O)CCCc1ccc2ccc3ccccc3c2c1 | 38.8 µM (inactive) | > 100 µM (inactive) | 34.8 µM (inactive) | – | 71.9 µM (inactive) | 55.2 µM (inactive) | 57.4 µM (inactive) | 42.5 µM (inactive) | > 100 µM (inactive) | 53.6 µM (inactive) | > 100 µM (inactive) | – | 84.3 µM (inactive) | 14 µM (inactive) | 46.2 µM (inactive) | 51.1 µM | – | 40.8 µM (inactive) | 51.9 µM (inactive) | 39.4 µM (inactive) |
| O=C1NC(NNc2ccccc2)=N/C1=C\c1ccccc1O | 81.5 µM (inactive) | 62.5 µM (inactive) | 48.4 µM (inactive) | > 100 µM (inactive) | > 100 µM (inactive) | – | 67.3 µM (inactive) | 50.2 µM (inactive) | 63.1 µM (inactive) | 96.2 µM (inactive) | 40.4 µM (inactive) | 0.0183 µM (active) | 29.6 µM (inactive) | 43.4 µM (inactive) | 49.1 µM (inactive) | 44.2 µM | 58.1 µM (inactive) | > 100 µM (inactive) | > 100 µM (inactive) | > 100 µM (inactive) |
